This is an account of results in ChEMBL document CHEMBL4610010, “Metachromins X and Y from a marine sponge Spongia sp. and their effects on cell cycle progression” (Bioorg Med Chem, 2020).

Counter-ions that a name gives are not always drawn. Activity calls are given as the source filed them. The calls are words filed in the database; no cut-off is given here.

One assay deals with HeLa/Fucci2. Nature of the assay: Induction of cell cycle arrest in human HeLa/Fucci2 cells assessed as accumulation at G1/S phase at 56 uM incubated for 3 days by flow cytometric analysis (reference value: 40.2%). The class given is functional.
Details: not given
A general note: In flow cytometry, cells or beads pass a laser one at a time.
In the case of `COC1=CC(=O)C(O)=C(C/C=C(\C)CCC2=C(C)CCCC2(C)C)C1=O`, the Activity is reported as 4.3%.
Still for that read-out and setting: the value for `COC1=CC(=O)C2=C(C=CC(C)(CCC3=C(C)CCCC3(C)C)O2)C1=O` (racemic) was 23.4%.

The next assay has as its system HeLa/Fucci2. Nature of the assay: Induction of cell cycle arrest in human HeLa/Fucci2 cells assessed as accumulation at S/G2/M phase at 56 uM measured after 68 hrs by Time-lapse imaging analysis based fluorescent microscopic method. The format is functional.
Details: not given
As to `COC1=CC(=O)C(O)=C(C/C=C(\C)CC[C@@]2(C)CCC=C(C)[C@H]2C)C1=O` [METACHROMIN C], the outcome was Active.
Same read-out and setting: next, `COC1=CC(=O)C(O)=C(C/C=C(\C)CCC2=C(C)CCCC2(C)C)C1=O`: “Active”.
Turning to `COC1=CC(=O)C2=C(C=CC(C)(CCC3=C(C)CCCC3(C)C)O2)C1=O` (racemic), the outcome was inactive.
For `COc1cc(OC)c2c(c1O)C=C[C@](C)(CC[C@@]1(C)CCC=C(C)[C@H]1C)O2`, the outcome was inactive.
The same measure, in the same setting: next, `COC1=CC(=O)C2=C(C=CC(C)(CC[C@@]3(C)CCC=C(C)[C@H]3C)O2)C1=O` (some centres not stated): “inactive”.

Another assay has as its system HeLa/Fucci2. Nature of the assay: Induction of cell cycle arrest in human HeLa/Fucci2 cells assessed as accumulation at S/G2/M phase at 56 uM incubated for 3 days by flow cytometric analysis (reference value: 20.4%). The class given is functional.
Details: not given
Consider `COC1=CC(=O)C(O)=C(C/C=C(\C)CCC2=C(C)CCCC2(C)C)C1=O`, for which the Activity stood at 88%.
As to `COC1=CC(=O)C2=C(C=CC(C)(CCC3=C(C)CCCC3(C)C)O2)C1=O` (racemic), the Activity is reported as 55%.

The next assay relates to HeLa/Fucci2. Nature of the assay: Induction of cell cycle arrest in human HeLa/Fucci2 cells assessed as accumulation at G1 phase at 56 uM incubated for 3 days by flow cytometric analysis (reference value: 39.4%). The format is functional.
Details: not given
Consider `COC1=CC(=O)C(O)=C(C/C=C(\C)CCC2=C(C)CCCC2(C)C)C1=O`, for which the Activity came out at 7.6%.
The same measure, in the same setting: next, `COC1=CC(=O)C2=C(C=CC(C)(CCC3=C(C)CCCC3(C)C)O2)C1=O` (racemic): 21.5%.

The test system of a further assay is HeLa/Fucci2. Nature of the assay: Antiproliferative activity against human HeLa/Fucci2 cells assessed as inhibition of cell viability incubated for 3 days by MTT assay. The class given is functional, cell-based. Conditions: HeLa/Fucci2, 72 h.
As to `COC1=CC(=O)C(O)=C(C/C=C(\C)CC[C@@]2(C)CCC=C(C)[C@H]2C)C1=O` [METACHROMIN C], the IC50 (usually the concentration needed to halve the response being measured) is 53 µM.
Same read-out and setting: the value for `COC1=CC(=O)C(O)=C(C/C=C(\C)CCC2=C(C)CCCC2(C)C)C1=O` was 64 µM; that for `COC1=CC(=O)C2=C(C=CC(C)(CCC3=C(C)CCCC3(C)C)O2)C1=O` (racemic) was 76 µM.
Same read-out and setting: the value for `COc1cccc2c1C(=O)c1c(O)c3c(c(O)c1C2=O)C[C@@](O)(C(=O)CO)C[C@@H]3O[C@H]1C[C@H](N)[C@H](O)[C@H](C)O1` [DOXORUBICIN HYDROCHLORIDE] was 2 µM; that for `COc1cc(OC)c2c(c1O)C=C[C@](C)(CC[C@@]1(C)CCC=C(C)[C@H]1C)O2` was 89 µM.
As for `COC1=CC(=O)C2=C(C=CC(C)(CC[C@@]3(C)CCC=C(C)[C@H]3C)O2)C1=O` (some centres not stated), the concentration for half-maximal inhibition (IC50) was 73 µM.
